Reference: ChEMBL document CHEMBL1139415, “Highly functionalized 7-azaindoles as selective PPAR gamma modulators” (Bioorg Med Chem Lett, 2008)

How the values were obtained:
[1] = biological target: Polyunsaturated fatty acid 5-lipoxygenase (Homo sapiens, UniProt P09917); assay: Inhibition of 5-Lipoxygenase
[2] = Inhibition of PDE2
[3] = Inhibition of PDE3
[4] = biological target: Prostaglandin D2 receptor (Homo sapiens, UniProt Q13258); assay: Inhibition of prostanoid DP receptor
[5] = biological target: Prostaglandin E2 receptor EP3 subtype (Homo sapiens, UniProt P43115); assay: Inhibition of prostanoid EP3 receptor
[6] = biological target: Prostaglandin E2 receptor EP4 subtype (Homo sapiens, UniProt P35408); assay: Inhibition of prostanoid EP4 receptor
[7] = biological target: Prostaglandin F2-alpha receptor (Homo sapiens, UniProt P43088); assay: Inhibition of prostanoid FP receptor
Prostaglandin F2-alpha receptor, sequence (P43088 whole entry): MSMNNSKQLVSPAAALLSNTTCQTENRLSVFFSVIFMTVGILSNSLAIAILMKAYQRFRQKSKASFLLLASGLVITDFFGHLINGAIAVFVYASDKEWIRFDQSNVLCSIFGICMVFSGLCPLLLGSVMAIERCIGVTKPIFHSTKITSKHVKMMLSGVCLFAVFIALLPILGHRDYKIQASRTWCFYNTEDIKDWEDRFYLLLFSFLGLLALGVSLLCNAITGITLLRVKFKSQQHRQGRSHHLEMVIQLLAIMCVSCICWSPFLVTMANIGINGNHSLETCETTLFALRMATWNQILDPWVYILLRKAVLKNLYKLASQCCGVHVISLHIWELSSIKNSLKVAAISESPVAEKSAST

Prostacyclin receptor = Prostacyclin receptor (Homo sapiens, UniProt P43119); assay: Inhibition of prostanoid IP receptor
Prostacyclin receptor, sequence (P43119 whole entry): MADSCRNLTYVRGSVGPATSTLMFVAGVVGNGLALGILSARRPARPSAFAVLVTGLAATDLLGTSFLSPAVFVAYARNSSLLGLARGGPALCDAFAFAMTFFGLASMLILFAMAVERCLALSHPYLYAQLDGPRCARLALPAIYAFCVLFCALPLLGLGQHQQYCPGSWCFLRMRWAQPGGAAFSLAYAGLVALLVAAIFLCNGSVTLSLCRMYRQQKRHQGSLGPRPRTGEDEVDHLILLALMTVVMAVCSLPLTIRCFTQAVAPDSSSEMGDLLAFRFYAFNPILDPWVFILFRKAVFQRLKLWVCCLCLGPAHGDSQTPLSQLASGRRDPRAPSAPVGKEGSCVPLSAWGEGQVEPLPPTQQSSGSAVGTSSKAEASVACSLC

[8] = biological target: Alpha-2A adrenergic receptor (Homo sapiens, UniProt P08913); assay: Displacement of radioligand from adrenergic alpha2A receptor
[9] = biological target: Alpha-2B adrenergic receptor (Homo sapiens, UniProt P18089); assay: Displacement of radioligand from adrenergic alpha2B receptor
Alpha-2B adrenergic receptor, sequence (P18089 whole entry): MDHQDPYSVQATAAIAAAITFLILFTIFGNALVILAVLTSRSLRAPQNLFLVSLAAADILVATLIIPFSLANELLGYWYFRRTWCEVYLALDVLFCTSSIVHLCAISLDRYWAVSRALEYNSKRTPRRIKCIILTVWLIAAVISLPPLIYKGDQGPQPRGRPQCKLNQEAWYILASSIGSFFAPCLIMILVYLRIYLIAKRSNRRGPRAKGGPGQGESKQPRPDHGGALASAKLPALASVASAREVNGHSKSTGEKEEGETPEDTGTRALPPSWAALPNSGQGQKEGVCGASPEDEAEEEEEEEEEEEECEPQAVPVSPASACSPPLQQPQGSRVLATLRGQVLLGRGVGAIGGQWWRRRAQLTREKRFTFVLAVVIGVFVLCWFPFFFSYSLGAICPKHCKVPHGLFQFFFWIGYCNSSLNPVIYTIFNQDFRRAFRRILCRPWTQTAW

[10] = biological target: Beta-1 adrenergic receptor (Homo sapiens, UniProt P08588); assay: Displacement of radioligand from adrenergic beta-1 receptor
Beta-1 adrenergic receptor, sequence (P08588 whole entry): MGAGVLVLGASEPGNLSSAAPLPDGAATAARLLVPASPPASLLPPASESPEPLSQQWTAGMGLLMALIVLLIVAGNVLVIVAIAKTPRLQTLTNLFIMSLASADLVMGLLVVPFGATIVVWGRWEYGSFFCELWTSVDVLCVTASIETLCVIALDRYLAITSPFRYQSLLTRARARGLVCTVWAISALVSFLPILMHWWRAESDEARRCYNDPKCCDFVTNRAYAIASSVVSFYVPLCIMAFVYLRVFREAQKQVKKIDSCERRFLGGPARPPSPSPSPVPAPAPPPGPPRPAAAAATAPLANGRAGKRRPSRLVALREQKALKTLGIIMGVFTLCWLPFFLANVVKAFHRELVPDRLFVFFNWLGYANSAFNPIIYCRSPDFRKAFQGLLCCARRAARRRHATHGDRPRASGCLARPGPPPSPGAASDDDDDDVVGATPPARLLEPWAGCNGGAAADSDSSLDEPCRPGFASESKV

[11] = biological target: Beta-3 adrenergic receptor (Homo sapiens, UniProt P13945); assay: Displacement of radioligand from adrenergic beta3 receptor
[12] = biological target: Sodium-dependent noradrenaline transporter (Homo sapiens, UniProt P23975); assay: Displacement of radioligand from NET
D(1A) dopamine receptor = D(1A) dopamine receptor (Homo sapiens, UniProt P21728); assay: Displacement of radioligand from dopamine D1 receptor
D(2) dopamine receptor = D(2) dopamine receptor (Homo sapiens, UniProt P14416); assay: Displacement of radioligand from dopamine D2S receptor
D(3) dopamine receptor = D(3) dopamine receptor (Homo sapiens, UniProt P35462); assay: Displacement of radioligand from dopamine D3 receptor
[13] = biological target: Sodium-dependent dopamine transporter (Homo sapiens, UniProt Q01959); assay: Displacement of radioligand from DAT
[14] = biological target: Muscarinic acetylcholine receptor M3 (Homo sapiens, UniProt P20309); assay: Displacement of radioligand from muscarinic M3 receptor
Muscarinic acetylcholine receptor M3, sequence (P20309 whole entry): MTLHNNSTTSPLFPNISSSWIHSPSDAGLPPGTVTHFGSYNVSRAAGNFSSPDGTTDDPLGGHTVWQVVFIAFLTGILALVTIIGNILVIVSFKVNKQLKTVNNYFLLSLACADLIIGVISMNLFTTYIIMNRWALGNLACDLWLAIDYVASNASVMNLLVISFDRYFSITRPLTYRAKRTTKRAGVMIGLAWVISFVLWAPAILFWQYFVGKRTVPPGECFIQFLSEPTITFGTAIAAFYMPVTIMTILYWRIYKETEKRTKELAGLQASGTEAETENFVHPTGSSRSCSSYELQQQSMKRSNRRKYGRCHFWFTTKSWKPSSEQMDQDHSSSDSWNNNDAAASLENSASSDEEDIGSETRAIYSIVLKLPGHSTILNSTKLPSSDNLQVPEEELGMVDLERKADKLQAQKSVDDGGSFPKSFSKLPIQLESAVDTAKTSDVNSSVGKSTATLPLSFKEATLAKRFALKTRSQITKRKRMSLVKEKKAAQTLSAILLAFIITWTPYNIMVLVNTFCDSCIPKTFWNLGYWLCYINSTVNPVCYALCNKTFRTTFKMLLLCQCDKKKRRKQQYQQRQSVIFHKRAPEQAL

[15] = biological target: Muscarinic acetylcholine receptor M4 (Homo sapiens, UniProt P08173); assay: Displacement of radioligand from muscarinic M4 receptor
[16] = biological target: Delta-type opioid receptor (Homo sapiens, UniProt P41143); assay: Displacement of radioligand from delta opioid receptor
Delta-type opioid receptor, sequence (P41143 whole entry): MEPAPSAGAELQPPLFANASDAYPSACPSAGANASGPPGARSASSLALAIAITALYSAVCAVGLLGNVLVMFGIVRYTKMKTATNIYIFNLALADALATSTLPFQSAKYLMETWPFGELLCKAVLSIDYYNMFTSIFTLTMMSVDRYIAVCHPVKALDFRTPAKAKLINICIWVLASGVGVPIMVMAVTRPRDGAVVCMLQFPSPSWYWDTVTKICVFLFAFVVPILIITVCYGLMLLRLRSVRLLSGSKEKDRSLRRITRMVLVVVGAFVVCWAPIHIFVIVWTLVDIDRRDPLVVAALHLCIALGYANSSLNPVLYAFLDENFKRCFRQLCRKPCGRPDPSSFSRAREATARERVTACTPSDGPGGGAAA

[17] = biological target: Kappa-type opioid receptor (Homo sapiens, UniProt P41145); assay: Displacement of radioligand from kappa opioid receptor
Kappa-type opioid receptor, sequence (P41145 whole entry): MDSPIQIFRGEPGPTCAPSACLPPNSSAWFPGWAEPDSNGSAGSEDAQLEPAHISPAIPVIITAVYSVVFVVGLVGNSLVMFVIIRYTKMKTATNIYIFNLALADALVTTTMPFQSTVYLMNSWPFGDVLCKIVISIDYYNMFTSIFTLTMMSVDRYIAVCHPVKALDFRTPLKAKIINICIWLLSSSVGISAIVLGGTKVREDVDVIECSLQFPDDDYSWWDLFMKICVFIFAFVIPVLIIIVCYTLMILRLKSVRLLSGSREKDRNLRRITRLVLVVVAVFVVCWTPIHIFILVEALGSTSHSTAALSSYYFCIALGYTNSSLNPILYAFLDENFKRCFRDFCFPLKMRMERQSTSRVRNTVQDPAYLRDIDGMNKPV

Mu-type opioid receptor = Mu-type opioid receptor (Homo sapiens, UniProt P35372); assay: Displacement of radioligand from mu opioid receptor
Mu-type opioid receptor, sequence (P35372 whole entry): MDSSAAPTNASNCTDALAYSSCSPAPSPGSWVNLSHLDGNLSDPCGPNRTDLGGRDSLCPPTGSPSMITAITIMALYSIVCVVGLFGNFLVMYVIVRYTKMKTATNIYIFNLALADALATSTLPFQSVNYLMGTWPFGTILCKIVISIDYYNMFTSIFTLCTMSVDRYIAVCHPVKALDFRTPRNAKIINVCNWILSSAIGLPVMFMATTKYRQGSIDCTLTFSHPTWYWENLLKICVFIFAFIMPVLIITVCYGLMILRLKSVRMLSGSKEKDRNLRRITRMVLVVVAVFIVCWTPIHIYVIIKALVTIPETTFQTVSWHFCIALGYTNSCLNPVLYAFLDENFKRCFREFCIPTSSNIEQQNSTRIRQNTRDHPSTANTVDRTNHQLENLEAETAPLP

[18] = biological target: 5-hydroxytryptamine receptor 2B (Homo sapiens, UniProt P41595); assay: Displacement of radioligand from 5HT2B receptor
5-hydroxytryptamine receptor 2B, sequence (P41595 whole entry): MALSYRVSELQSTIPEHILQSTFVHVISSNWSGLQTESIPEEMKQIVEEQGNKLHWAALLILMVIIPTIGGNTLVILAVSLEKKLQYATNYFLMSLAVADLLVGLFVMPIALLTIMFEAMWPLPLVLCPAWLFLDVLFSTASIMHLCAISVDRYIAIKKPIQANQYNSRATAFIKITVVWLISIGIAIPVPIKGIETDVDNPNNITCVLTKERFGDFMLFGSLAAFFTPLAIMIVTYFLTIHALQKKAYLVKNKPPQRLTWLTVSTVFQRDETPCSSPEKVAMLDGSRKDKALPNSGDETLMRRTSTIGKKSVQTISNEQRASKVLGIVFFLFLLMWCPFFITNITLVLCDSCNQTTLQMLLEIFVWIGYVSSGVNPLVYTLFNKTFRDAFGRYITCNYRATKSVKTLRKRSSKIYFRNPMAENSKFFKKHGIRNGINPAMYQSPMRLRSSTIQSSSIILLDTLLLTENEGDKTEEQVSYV

[19] = biological target: Sodium-dependent serotonin transporter (Homo sapiens, UniProt P31645); assay: Displacement of radioligand from SERT
Sodium-dependent serotonin transporter, sequence (P31645 whole entry): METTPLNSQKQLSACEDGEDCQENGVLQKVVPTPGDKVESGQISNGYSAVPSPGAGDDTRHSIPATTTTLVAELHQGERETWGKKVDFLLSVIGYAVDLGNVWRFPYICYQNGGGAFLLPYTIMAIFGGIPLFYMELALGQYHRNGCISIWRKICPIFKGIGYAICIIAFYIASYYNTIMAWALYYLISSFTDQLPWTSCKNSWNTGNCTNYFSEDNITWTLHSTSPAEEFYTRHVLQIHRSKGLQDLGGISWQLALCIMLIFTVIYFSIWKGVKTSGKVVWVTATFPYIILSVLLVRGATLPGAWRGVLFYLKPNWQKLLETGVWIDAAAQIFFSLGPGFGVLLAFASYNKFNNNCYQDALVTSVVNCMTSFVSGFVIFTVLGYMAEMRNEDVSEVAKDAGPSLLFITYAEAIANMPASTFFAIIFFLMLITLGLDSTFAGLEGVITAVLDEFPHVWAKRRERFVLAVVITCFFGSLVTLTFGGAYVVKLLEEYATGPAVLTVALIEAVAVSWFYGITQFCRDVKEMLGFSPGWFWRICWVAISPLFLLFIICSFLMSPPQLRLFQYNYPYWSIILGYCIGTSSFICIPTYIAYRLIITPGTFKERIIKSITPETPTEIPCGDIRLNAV

Substance-K receptor = Substance-K receptor (Homo sapiens, UniProt P21452); assay: Displacement of radioligand from tachykinin NK2 receptor
Substance-K receptor, sequence (P21452 whole entry): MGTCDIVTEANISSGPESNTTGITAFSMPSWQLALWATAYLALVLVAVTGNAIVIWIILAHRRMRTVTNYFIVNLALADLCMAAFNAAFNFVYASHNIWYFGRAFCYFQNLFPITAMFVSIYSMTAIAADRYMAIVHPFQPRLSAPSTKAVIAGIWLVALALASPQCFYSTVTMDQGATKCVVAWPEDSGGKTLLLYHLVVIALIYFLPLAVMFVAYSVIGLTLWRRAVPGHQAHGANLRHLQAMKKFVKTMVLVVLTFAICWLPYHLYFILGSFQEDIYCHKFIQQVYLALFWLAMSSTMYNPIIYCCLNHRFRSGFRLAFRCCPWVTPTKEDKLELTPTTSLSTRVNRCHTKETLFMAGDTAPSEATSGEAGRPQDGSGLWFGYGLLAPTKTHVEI

Thromboxane A2 receptor = Thromboxane A2 receptor (Homo sapiens, UniProt P21731); assay: Displacement of radioligand from TXA2 receptor

## Cc1c(C(=O)c2ccc(Cl)cc2)c2ccc(OC(F)(F)F)cc2n1Cc1cccc(O[C@H](C)C(=O)O)c1
[1]
  IC50: 1640 nM
[2]
  IC50: 29100 nM
[3]
  IC50: 22500 nM
[4]
  IC50: 8450 nM
[5]
  IC50: 1220 nM
[6]
  IC50: 3700 nM
[7]
  IC50: 2730 nM
Prostacyclin receptor
  IC50: 6340 nM
[8]
  IC50: 1650 nM
[9]
  IC50: 770 nM
[10]
  IC50: 4070 nM
[11]
  IC50: 4860 nM
[12]
  IC50: 2160 nM
D(1A) dopamine receptor
  IC50: 1530 nM
D(2) dopamine receptor
  IC50: 3550 nM
D(3) dopamine receptor
  IC50: 837 nM
[13]
  IC50: 3410 nM
[14]
  IC50: 1560 nM
[15]
  IC50: 1340 nM
[16]
  IC50: 1690 nM
[17]
  IC50: 3480 nM
Mu-type opioid receptor
  IC50: 1860 nM
[18]
  IC50: 1140 nM
[19]
  IC50: 970 nM
Substance-K receptor
  IC50: 530 nM
Thromboxane A2 receptor
  IC50: 2030 nM
